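Five concentrations, 48 hours, 96-well plates. GI50: concentration for 50% inhibition of growth.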 Active and inactive are the calls of the source. Cut-off read from the data, not from the text of the source: active = GI50 up to about 1.1 µM and inactive = higher.
How the values were obtained:
Assay in all cases: growth of human tumour cells (NCI), 48 h
M19-MEL = tested on: M19-MEL
SF-268 = tested on: SF-268
DMS-273 = tested on: DMS-273
NCI-H522 = tested on: NCI-H522
UACC-62 = tested on: UACC-62
DLD-1 = tested on: DLD-1
UACC-257 = tested on: UACC-257
A549 = tested on: A549
SNB-78 = tested on: SNB-78
NCI-H226 = tested on: NCI-H226
K562 = tested on: K562
OVCAR-5 = tested on: OVCAR-5
RXF 393 = tested on: RXF 393
NCI-H460 = tested on: NCI-H460
Malme-3M = tested on: Malme-3M
HCT-116 = tested on: HCT-116
SK-MEL-2 = tested on: SK-MEL-2
CAKI-1 = tested on: CAKI-1
LOX IMVI = tested on: LOX IMVI
U-251 = tested on: U-251
MOLT-4 = tested on: MOLT-4
XF498 = tested on: XF498
HCT-15 = tested on: HCT-15
SNB-75 = tested on: SNB-75
NCI/ADR-RES = tested on: NCI/ADR-RES
SF-295 = tested on: SF-295
HL-60 = tested on: HL-60
HOP-62 = tested on: HOP-62
DMS-114 = tested on: DMS-114
SW-620 = tested on: SW-620
CCRF-CEM = tested on: CCRF-CEM
HCC 2998 = tested on: HCC 2998
A498 = tested on: A498
RPMI-8226 = tested on: RPMI-8226
SNB-19 = tested on: SNB-19
COLO 205 = tested on: COLO 205
HT-29 = tested on: HT-29
HOP-92 = tested on: HOP-92
OVCAR-4 = tested on: OVCAR-4
IGROV-1 = tested on: IGROV-1
KM-20L2 = tested on: KM-20L2
SK-MEL-5 = tested on: SK-MEL-5
HOP-18 = tested on: HOP-18
SK-MEL-28 = tested on: SK-MEL-28
KM12 = tested on: KM12
OVCAR-3 = tested on: OVCAR-3
MCF7 = tested on: MCF7
OVCAR-8 = tested on: OVCAR-8
SN12C = tested on: SN12C
SK-OV-3 = tested on: SK-OV-3
UO-31 = tested on: UO-31
EKVX = tested on: EKVX
SF-539 = tested on: SF-539
NCI-H23 = tested on: NCI-H23
ACHN = tested on: ACHN
SR = tested on: SR
M14 = tested on: M14
786-0 = tested on: 786-0
TK-10 = tested on: TK-10
LXFL 529 = tested on: LXFL 529

## O=C1CCCN1CCC/N=c1/cc2n(-c3ccc(Cl)cc3)c3ccccc3nc-2cc1Nc1ccc(Cl)cc1
M19-MEL
  GI50: 2.32 µM (inactive)
SF-268
  GI50: 38.5 µM (inactive)
DMS-273
  GI50: 15.6 µM (inactive)
NCI-H522
  GI50: 9.23 µM (inactive)
UACC-62
  GI50: 11.5 µM (inactive)
DLD-1
  GI50: 4.81 µM (inactive)
UACC-257
  GI50: 11.9 µM (inactive)
A549
  GI50: 15.7 µM (inactive)
SNB-78
  GI50: 18.9 µM (inactive)
NCI-H226
  GI50: 15.7 µM (inactive)
K562
  GI50: 9.23 µM (inactive)
OVCAR-5
  GI50: 17 µM (inactive)
RXF 393
  GI50: 1.78 µM (inactive)
NCI-H460
  GI50: 7.06 µM (inactive)
Malme-3M
  GI50: 16.5 µM (inactive)
HCT-116
  GI50: 7.26 µM (inactive)
SK-MEL-2
  GI50: 13.1 µM (inactive)
CAKI-1
  GI50: 27 µM (inactive)
LOX IMVI
  GI50: 7.71 µM (inactive)
U-251
  GI50: 22.1 µM (inactive)
MOLT-4
  GI50: 3.66 µM (inactive)
XF498
  GI50: 19.7 µM (inactive)
HCT-15
  GI50: 4.52 µM
SNB-75
  GI50: 25.6 µM (inactive)
NCI/ADR-RES
  GI50: 15.6 µM (inactive)
SF-295
  GI50: 19.3 µM (inactive)
HL-60
  GI50: 3.47 µM (inactive)
HOP-62
  GI50: 12.9 µM (inactive)
DMS-114
  GI50: 6.38 µM (inactive)
SW-620
  GI50: 14.5 µM (inactive)
CCRF-CEM
  GI50: 12.6 µM (inactive)
HCC 2998
  GI50: 5.18 µM (inactive)
A498
  GI50: 19.5 µM (inactive)
RPMI-8226
  GI50: 5.98 µM (inactive)
SNB-19
  GI50: 34.7 µM (inactive)
COLO 205
  GI50: 1.41 µM (inactive)
HT-29
  GI50: 2.13 µM (inactive)
HOP-92
  GI50: 8.17 µM (inactive)
OVCAR-4
  GI50: 5.57 µM (inactive)
IGROV-1
  GI50: 2.75 µM (inactive)
KM-20L2
  GI50: 2.42 µM (inactive)
SK-MEL-5
  GI50: 13 µM (inactive)
HOP-18
  GI50: 24.8 µM (inactive)
SK-MEL-28
  GI50: 23.8 µM (inactive)
KM12
  GI50: 13.4 µM (inactive)
OVCAR-3
  GI50: 2.09 µM (inactive)
MCF7
  GI50: 7.24 µM (inactive)
OVCAR-8
  GI50: 14.6 µM (inactive)
SN12C
  GI50: 14.8 µM (inactive)
SK-OV-3
  GI50: 46.7 µM (inactive)
UO-31
  GI50: 6.73 µM (inactive)
EKVX
  GI50: 13.1 µM (inactive)
SF-539
  GI50: 12.7 µM (inactive)
NCI-H23
  GI50: 8.26 µM (inactive)

## CS(=O)(=O)Oc1cccc(/C=N/N=C(\N)NO)c1
M19-MEL
  GI50: 42.5 µM (inactive)
SF-268
  GI50: 24.2 µM (inactive)
DMS-273
  GI50: 19.9 µM (inactive)
NCI-H522
  GI50: 26.2 µM (inactive)
UACC-62
  GI50: 4.84 µM (inactive)
DLD-1
  GI50: 24.9 µM (inactive)
UACC-257
  GI50: 38.8 µM (inactive)
A549
  GI50: 21.8 µM (inactive)
SNB-78
  GI50: > 100 µM (inactive)
ACHN
  GI50: 22.2 µM (inactive)
NCI-H226
  GI50: 23.3 µM (inactive)
K562
  GI50: 19.1 µM (inactive)
OVCAR-5
  GI50: 36 µM (inactive)
RXF 393
  GI50: 37.4 µM (inactive)
NCI-H460
  GI50: 24.8 µM (inactive)
Malme-3M
  GI50: 23.1 µM (inactive)
HCT-116
  GI50: 32.9 µM (inactive)
SK-MEL-2
  GI50: 34.8 µM (inactive)
CAKI-1
  GI50: 20.9 µM (inactive)
SR
  GI50: 27.4 µM (inactive)
U-251
  GI50: 27.7 µM (inactive)
XF498
  GI50: 10.7 µM (inactive)
HCT-15
  GI50: 35.1 µM
SNB-75
  GI50: 2.96 µM (inactive)
M14
  GI50: 27.1 µM (inactive)
786-0
  GI50: 19.3 µM (inactive)
SF-295
  GI50: 49.3 µM (inactive)
HL-60
  GI50: 19 µM (inactive)
TK-10
  GI50: 14.7 µM (inactive)
HOP-62
  GI50: 27.5 µM (inactive)
DMS-114
  GI50: 9.55 µM (inactive)
SW-620
  GI50: 19.9 µM (inactive)
CCRF-CEM
  GI50: 23.9 µM (inactive)
HCC 2998
  GI50: 20.6 µM (inactive)
A498
  GI50: 73.1 µM (inactive)
SNB-19
  GI50: 64.9 µM (inactive)
COLO 205
  GI50: 26.7 µM (inactive)
HT-29
  GI50: 24.8 µM (inactive)
HOP-92
  GI50: 22.4 µM (inactive)
OVCAR-4
  GI50: 18 µM (inactive)
IGROV-1
  GI50: 35.2 µM (inactive)
HOP-18
  GI50: 69.8 µM (inactive)
SK-MEL-28
  GI50: > 100 µM (inactive)
KM12
  GI50: 25.1 µM (inactive)
OVCAR-3
  GI50: 35.2 µM (inactive)
LXFL 529
  GI50: 19.2 µM (inactive)
OVCAR-8
  GI50: 33.2 µM (inactive)
SN12C
  GI50: 29.2 µM (inactive)
SK-OV-3
  GI50: 27 µM (inactive)
UO-31
  GI50: 22.8 µM (inactive)
EKVX
  GI50: 34 µM (inactive)
SF-539
  GI50: 28.6 µM (inactive)
NCI-H23
  GI50: 27.2 µM (inactive)

From ChEMBL document CHEMBL1201862, “PubChem BioAssay data set” (2004)
